Assay results: patent US11173151B2, “Substituted triazole derivatives and uses thereof” (BAYER AKTIENGESELLSCHAFT, priority 2017, dated 2021)

Assays:
human V2 receptor = target: T1, human V2 receptor (Homo sapiens, UniProt P30518); assay: Cellular in vitro assay for determining vasopressin receptor activity, V2 receptor cell line (CHO, CRE-luciferase); assay type: cell-based; details: CHO cell line transfected with human V2 receptor; [Arg8]-vasopressin at EC50 concentration, 3 hours; read-out: IC50 hV2
T1 construct: expressed in transfected cells; host or cells: CHO K1 (ATCC) expressing firefly luciferase under a CRE-responsive promoter

human V1a receptor = target: T2, human V1a receptor (Homo sapiens, UniProt P37288); assay: Cellular in vitro assay for determining vasopressin receptor activity, V1a receptor cell line (CHO, aequorin luminescence); assay type: cell-based; details: for IC50: CHO cell line transfected with human V1a receptor, [Arg]-vasopressin at EC50 concentration, read-out: IC50 hV1a; for ratio IC50 hV2/hV1a: selectivity ratio IC50 hV2 / IC50 hV1a
T2 construct: expressed in transfected cells; host or cells: CHO K1 (ATCC), also stably transfected with a modified aequorin
Outline: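 Cells were plated the day before in medium containing 5 μg/ml coelenterazine and kept at 37° C. Compounds at various concentrations were then added for 10 minutes. Next, [Arg]-vasopressin at EC50 was applied and light output recorded at once, yielding IC50.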

T1 sequence (P30518 whole entry): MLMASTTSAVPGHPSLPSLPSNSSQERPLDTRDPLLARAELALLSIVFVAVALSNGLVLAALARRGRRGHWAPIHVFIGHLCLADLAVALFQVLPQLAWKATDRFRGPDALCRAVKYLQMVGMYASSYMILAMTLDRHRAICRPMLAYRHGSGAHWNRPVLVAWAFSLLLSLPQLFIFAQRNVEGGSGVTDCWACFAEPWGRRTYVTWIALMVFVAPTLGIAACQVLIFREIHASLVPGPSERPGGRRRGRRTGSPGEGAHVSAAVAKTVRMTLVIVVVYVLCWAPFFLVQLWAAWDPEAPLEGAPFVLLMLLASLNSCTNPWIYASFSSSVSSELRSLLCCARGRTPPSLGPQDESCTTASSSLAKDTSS
T2 sequence (P37288 whole entry): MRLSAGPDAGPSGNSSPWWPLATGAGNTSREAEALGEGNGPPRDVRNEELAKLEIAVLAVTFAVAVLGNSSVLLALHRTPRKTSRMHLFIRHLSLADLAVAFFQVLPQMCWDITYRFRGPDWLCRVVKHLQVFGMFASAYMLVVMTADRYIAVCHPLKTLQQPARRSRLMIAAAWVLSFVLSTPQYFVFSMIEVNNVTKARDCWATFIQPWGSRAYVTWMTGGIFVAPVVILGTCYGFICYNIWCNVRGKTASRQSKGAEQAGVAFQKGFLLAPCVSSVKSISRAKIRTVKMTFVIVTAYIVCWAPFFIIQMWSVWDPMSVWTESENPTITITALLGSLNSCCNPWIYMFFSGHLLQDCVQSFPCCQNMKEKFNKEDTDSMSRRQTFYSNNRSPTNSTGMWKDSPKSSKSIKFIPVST

O=C(NCc1ccc(F)c(F)c1)c1ccccc1-n1cnc(Cn2nc(-c3ccc(Cl)cc3)n(C[C@H](O)C(F)(F)F)c2=O)n1 [Example 239, 2-[3-({3-(4-Chlorophenyl)-5-oxo-4-[(2S)-3,3,3-trifluoro-2-hydroxypropyl]-4,5-dihydro-1H-1,2,4-triazol-1-yl}methyl)-1H-1,2,4-triazol-1-yl]-N-(3,4-difluorobenzyl)benzamide] was tested, and the IC50 (human V2 receptor) was 240 nM, the IC50 (human V1a receptor) was 7.35 nM and the “ratio IC50 hV2/hV1a” value (human V1a receptor) was 32.7.
In the case of Cc1ccnc(NC(=O)c2ccccc2-n2cnc(Cn3nc(-c4ccc(Cl)cc4)n(C[C@H](O)C(F)(F)F)c3=O)n2)n1 [Example 240, 2-[3-({3-(4-Chlorophenyl)-5-oxo-4-[(2S)-3,3,3-trifluoro-2-hydroxypropyl]-4,5-dihydro-1H-1,2,4-triazol-1-yl}methyl)-1H-1,2,4-triazol-1-yl]-N-(4-methylpyrimidin-2-yl)benzamide], the IC50 (human V2 receptor) is reported as 300 nM, the IC50 (human V1a receptor) is reported as 12.5 nM and the “ratio IC50 hV2/hV1a” value (human V1a receptor) is reported as 24.0.
O=C(NCCF)c1ccccc1-n1cnc(Cn2nc(-c3ccc(Cl)cc3)n(C[C@H](O)C(F)(F)F)c2=O)n1 [Example 241, 2-[3-({3-(4-Chlorophenyl)-5-oxo-4-[(2S)-3,3,3-trifluoro-2-hydroxypropyl]-4,5-dihydro-1H-1,2,4-triazol-1-yl}methyl)-1H-1,2,4-triazol-1-yl]-N-(2-fluoroethyl)benzamide] was tested, and the IC50 (human V2 receptor) was 73.5 nM, the IC50 (human V1a receptor) was 2.2 nM and the “ratio IC50 hV2/hV1a” value (human V1a receptor) was 33.4.
O=C(NCc1c(F)cccc1F)c1ccccc1-n1cnc(Cn2nc(-c3ccc(Cl)cc3)n(C[C@H](O)C(F)(F)F)c2=O)n1 [Example 242, 2-[3-({3-(4-Chlorophenyl)-5-oxo-4-[(2S)-3,3,3-trifluoro-2-hydroxypropyl]-4,5-dihydro-1H-1,2,4-triazol-1-yl}methyl)-1H-1,2,4-triazol-1-yl]-N-(2,6-difluorobenzyl)benzamide] was tested, and the IC50 (human V2 receptor) was 126 nM, the IC50 (human V1a receptor) was 5.7 nM and the “ratio IC50 hV2/hV1a” value (human V1a receptor) was 22.2.
In the case of O=C(NCc1cc(F)cc(F)c1)c1ccccc1-n1cnc(Cn2nc(-c3ccc(Cl)cc3)n(C[C@H](O)C(F)(F)F)c2=O)n1 [Example 243, 2-[3-({3-(4-Chlorophenyl)-5-oxo-4-[(2S)-3,3,3-trifluoro-2-hydroxypropyl]-4,5-dihydro-1H-1,2,4-triazol-1-yl}methyl)-1H-1,2,4-triazol-1-yl]-N-(3,5-difluorobenzyl)benzamide], the IC50 (human V2 receptor) is reported as 540 nM, the IC50 (human V1a receptor) is reported as 22.5 nM and the “ratio IC50 hV2/hV1a” value (human V1a receptor) is reported as 24.0.
In the case of Cc1noc(NC(=O)c2ccccc2-n2cnc(Cn3nc(-c4ccc(Cl)cc4)n(C[C@H](O)C(F)(F)F)c3=O)n2)c1C [Example 244, 2-[3-({3-(4-Chlorophenyl)-5-oxo-4-[(2S)-3,3,3-trifluoro-2-hydroxypropyl]-4,5-dihydro-1H-1,2,4-triazol-1-yl}methyl)-1H-1,2,4-triazol-1-yl]-N-(3,4-dimethyl-1,2-oxazol-5-yl)benzamide], the IC50 (human V2 receptor) is reported as 230 nM, the IC50 (human V1a receptor) is reported as 7.3 nM and the “ratio IC50 hV2/hV1a” value (human V1a receptor) is reported as 31.5.
In the case of CC(C)=CCNC(=O)c1ccccc1-n1cnc(Cn2nc(-c3ccc(Cl)cc3)n(C[C@H](O)C(F)(F)F)c2=O)n1 [Example 245, 2-[3-({3-(4-Chlorophenyl)-5-oxo-4-[(2S)-3,3,3-trifluoro-2-hydroxypropyl]-4,5-dihydro-1H-1,2,4-triazol-1-yl}methyl)-1H-1,2,4-triazol-1-yl]-N-(3-methylbut-2-en-1-yl)benzamide], the IC50 (human V2 receptor) is reported as 810 nM, the IC50 (human V1a receptor) is reported as 6.45 nM and the “ratio IC50 hV2/hV1a” value (human V1a receptor) is reported as 125.6.
For O=C(N[C@H]1CC[C@H](O)CC1)c1ccccc1-n1cnc(Cn2nc(-c3ccc(Cl)cc3)n(C[C@H](O)C(F)(F)F)c2=O)n1 [Example 246, 2-[3-({3-(4-Chlorophenyl)-5-oxo-4-[(2S)-3,3,3-trifluoro-2-hydroxypropyl]-4,5-dihydro-1H-1,2,4-triazol-1-yl}methyl)-1H-1,2,4-triazol-1-yl]-N-(trans-4-hydroxycyclohexyl)benzamide], the IC50 (human V2 receptor) was 1200 nM, the IC50 (human V1a receptor) was 4.55 nM and the “ratio IC50 hV2/hV1a” value (human V1a receptor) was 263.7.
For O=C(Nc1ccccc1O)c1ccccc1-n1cnc(Cn2nc(-c3ccc(Cl)cc3)n(C[C@H](O)C(F)(F)F)c2=O)n1 [Example 247, 2-[3-({3-(4-Chlorophenyl)-5-oxo-4-[(2S)-3,3,3-trifluoro-2-hydroxypropyl]-4,5-dihydro-1H-1,2,4-triazol-1-yl}methyl)-1H-1,2,4-triazol-1-yl]-N-(2-hydroxyphenyl)benzamide], the IC50 (human V2 receptor) was 10.4 nM, the IC50 (human V1a receptor) was 2.4 nM and the “ratio IC50 hV2/hV1a” value (human V1a receptor) was 4.4.
In the case of O=C(Nc1cccnc1)c1ccccc1-n1cnc(Cn2nc(-c3ccc(Cl)cc3)n(C[C@H](O)C(F)(F)F)c2=O)n1 [Example 248, 2-[3-({3-(4-Chlorophenyl)-5-oxo-4-[(2S)-3,3,3-trifluoro-2-hydroxypropyl]-4,5-dihydro-1H-1,2,4-triazol-1-yl}methyl)-1H-1,2,4-triazol-1-yl]-N-(pyridin-3-yl)benzamide], the IC50 (human V2 receptor) is reported as 65 nM, the IC50 (human V1a receptor) is reported as 1.2 nM and the “ratio IC50 hV2/hV1a” value (human V1a receptor) is reported as 54.2.
In the case of Cc1ccc(NC(=O)c2ccccc2-n2cnc(Cn3nc(-c4ccc(Cl)cc4)n(C[C@H](O)C(F)(F)F)c3=O)n2)cn1 [Example 249, 2-[3-({3-(4-Chlorophenyl)-5-oxo-4-[(2S)-3,3,3-trifluoro-2-hydroxypropyl]-4,5-dihydro-1H-1,2,4-triazol-1-yl}methyl)-1H-1,2,4-triazol-1-yl]-N-(6-methylpyridin-3-yl)benzamide], the IC50 (human V2 receptor) is reported as 136 nM, the IC50 (human V1a receptor) is reported as 2.8 nM and the “ratio IC50 hV2/hV1a” value (human V1a receptor) is reported as 48.6.
For Cc1cc(NC(=O)c2ccccc2-n2cnc(Cn3nc(-c4ccc(Cl)cc4)n(C[C@H](O)C(F)(F)F)c3=O)n2)cnc1F [Example 250, 2-[3-({3-(4-Chlorophenyl)-5-oxo-4-[(2S)-3,3,3-trifluoro-2-hydroxypropyl]-4,5-dihydro-1H-1,2,4-triazol-1-yl}methyl)-1H-1,2,4-triazol-1-yl]-N-(6-fluoro-5-methylpyridin-3-yl)benzamide], the IC50 (human V2 receptor) was 87 nM, the IC50 (human V1a receptor) was 4.45 nM and the “ratio IC50 hV2/hV1a” value (human V1a receptor) was 19.6.
O=C(Nc1nncs1)c1ccccc1-n1cnc(Cn2nc(-c3ccc(Cl)cc3)n(C[C@H](O)C(F)(F)F)c2=O)n1 [Example 251, 2-[3-({3-(4-Chlorophenyl)-5-oxo-4-[(2S)-3,3,3-trifluoro-2-hydroxypropyl]-4,5-dihydro-1H-1,2,4-triazol-1-yl}methyl)-1H-1,2,4-triazol-1-yl]-N-(1,3,4-thiadiazol-2-yl)benzamide] was tested, and the IC50 (human V2 receptor) was 81.5 nM, the IC50 (human V1a receptor) was 8.85 nM and the “ratio IC50 hV2/hV1a” value (human V1a receptor) was 9.2.
N#CCNC(=O)c1ccccc1-n1cnc(Cn2nc(-c3ccc(Cl)cc3)n(C[C@H](O)C(F)(F)F)c2=O)n1 [Example 252, 2-[3-({3-(4-Chlorophenyl)-5-oxo-4-[(2S)-3,3,3-trifluoro-2-hydroxypropyl]-4,5-dihydro-1H-1,2,4-triazol-1-yl}methyl)-1H-1,2,4-triazol-1-yl]-N-(cyanomethyl)benzamide] was tested, and the IC50 (human V2 receptor) was 255 nM, the IC50 (human V1a receptor) was 7.6 nM and the “ratio IC50 hV2/hV1a” value (human V1a receptor) was 33.6.
With O=C(NCc1cccs1)c1ccccc1-n1cnc(Cn2nc(-c3ccc(Cl)cc3)n(C[C@H](O)C(F)(F)F)c2=O)n1 [Example 253, 2-[3-({3-(4-Chlorophenyl)-5-oxo-4-[(2S)-3,3,3-trifluoro-2-hydroxypropyl]-4,5-dihydro-1H-1,2,4-triazol-1-yl}methyl)-1H-1,2,4-triazol-1-yl]-N-(thiophen-2-ylmethyl)benzamide] the IC50 (human V2 receptor) was 365 nM, the IC50 (human V1a receptor) was 5.7 nM and the “ratio IC50 hV2/hV1a” value (human V1a receptor) was 64.0.
Cc1cc(NC(=O)c2ccccc2-n2cnc(Cn3nc(-c4ccc(Cl)cc4)n(C[C@H](O)C(F)(F)F)c3=O)n2)ccn1 [Example 254, 2-[3-({3-(4-Chlorophenyl)-5-oxo-4-[(2S)-3,3,3-trifluoro-2-hydroxypropyl]-4,5-dihydro-1H-1,2,4-triazol-1-yl}methyl)-1H-1,2,4-triazol-1-yl]-N-(2-methylpyridin-4-yl)benzamide] was tested, and the IC50 (human V2 receptor) was 670 nM, the IC50 (human V1a receptor) was 2.25 nM and the “ratio IC50 hV2/hV1a” value (human V1a receptor) was 297.8.
For O=C(Nc1cncc(F)c1)c1ccccc1-n1cnc(Cn2nc(-c3ccc(Cl)cc3)n(C[C@H](O)C(F)(F)F)c2=O)n1 [Example 255, 2-[3-({3-(4-Chlorophenyl)-5-oxo-4-[(2S)-3,3,3-trifluoro-2-hydroxypropyl]-4,5-dihydro-1H-1,2,4-triazol-1-yl}methyl)-1H-1,2,4-triazol-1-yl]-N-(5-fluoropyridin-3-yl)benzamide], the IC50 (human V2 receptor) was 225 nM, the IC50 (human V1a receptor) was 1.33 nM and the “ratio IC50 hV2/hV1a” value (human V1a receptor) was 169.8.
In the case of Cc1cnc(NC(=O)c2ccccc2-n2cnc(Cn3nc(-c4ccc(Cl)cc4)n(C[C@H](O)C(F)(F)F)c3=O)n2)s1 [Example 256, 2-[3-({3-(4-Chlorophenyl)-5-oxo-4-[(2S)-3,3,3-trifluoro-2-hydroxypropyl]-4,5-dihydro-1H-1,2,4-triazol-1-yl}methyl)-1H-1,2,4-triazol-1-yl]-N-(5-methyl-1,3-thiazol-2-yl)benzamide], the IC50 (human V2 receptor) is reported as 13 nM, the IC50 (human V1a receptor) is reported as 3.6 nM and the “ratio IC50 hV2/hV1a” value (human V1a receptor) is reported as 3.6.
In the case of O=C(Nc1ccncn1)c1ccccc1-n1cnc(Cn2nc(-c3ccc(Cl)cc3)n(C[C@H](O)C(F)(F)F)c2=O)n1 [Example 257, 2-[3-({3-(4-Chlorophenyl)-5-oxo-4-[(2S)-3,3,3-trifluoro-2-hydroxypropyl]-4,5-dihydro-1H-1,2,4-triazol-1-yl}methyl)-1H-1,2,4-triazol-1-yl]-N-(pyrimidin-4-yl)benzamide], the IC50 (human V2 receptor) is reported as 150 nM, the IC50 (human V1a receptor) is reported as 6.05 nM and the “ratio IC50 hV2/hV1a” value (human V1a receptor) is reported as 24.8.
For O=C(Nc1ccccc1Cl)c1ccccc1-n1cnc(Cn2nc(-c3ccc(Cl)cc3)n(C[C@H](O)C(F)(F)F)c2=O)n1 [Example 258, N-(2-Chlorophenyl)-2-[3-({3-(4-chlorophenyl)-5-oxo-4-[(2S)-3,3,3-trifluoro-2-hydroxypropyl]-4,5-dihydro-1H-1,2,4-triazol-1-yl}methyl)-1H-1,2,4-triazol-1-yl]benzamide], the IC50 (human V2 receptor) was 81.5 nM, the IC50 (human V1a receptor) was 1.9 nM and the “ratio IC50 hV2/hV1a” value (human V1a receptor) was 42.9.
